Where a SMILES comes first, the peptide text is derived from it. [ ]: non-standard residue; d: D form. Dmt = Cc1cc(O)cc(C)c1C[C@H](N)C(=O)O
System: isolated mitochondria
Test: TMRM time course of ΔΨm generation in mitochondria with ETH-129 and calcium
Set-up: species or system S. cerevisiae
Description: Figure 7. SS peptide effects on Ca^2+-membrane interactions and mitochondrial cation stress. A, profiles of surface potential decay (top) and ion distribution (bottom) based on GCS theory in the presence or absence of SS-31 (see supporting Results H for model description). B, effect of SS peptides on Ca^2+ accumulation at model membrane interfaces. Time course measurements of CG-5N emission were performed in solutions with LUVs (20 mol % TOCL in host POPC background, [lipid]^eff = 100 μM) prebound with SS peptide at the indicated concentration followed by titration of CaCl2 in increments of 1 nmol at 20-s intervals starting at t = 60 s. […] Spectral deconvolution yielded the indicated components (see Fig. S19, A and B), which were used to quantify the area ratios of L2/iso in F (values shown are means ± S.D. (error bars) (n = 3). G, respirometry analysis. Mitochondria (1 mg ml^−1) were treated in the absence or presence of SS-31 (54.4 μM) or CaCl2 (1 mM) as indicated and measured for state 2 respiration (n = 10–12 each).
Second, we measured the effects of SS peptides on mitochondrial Ca^2+ flux. […] In these experiments, we monitored the relative ΔΨm using the potentiometric probe tetramethylrhodamine methyl ester (TMRM) (the emission of which is inversely related to membrane potential; Fig. S17E) and, in parallel, monitored the external [Ca^2+] using CG-5N (Fig. 7C and Fig. S18A). […]

Cc1cc(O)cc(C)c1C[C@H](NC(=O)[C@H](N)CCCNC(=N)N)C(=O)N[C@@H](CCCCN)C(=O)N[C@@H](Cc1ccccc1)C(N)=O [SS-31, D-Arg-2′6′-dimethyl-Tyr-Lys-Phe-NH2] (H-[dR][Dmt]KF-NH2)
dose response of effect on Ca2+-dependent ΔΨm generation delay (25 μM CaCl2, 1 mM NADH, n = 3): dose-dependent and saturable | effect on temporal delay in mitochondrial energization (ΔΨm generation) with Ca2+ (ETH-129, NADH, increasing [Ca2+], TMRM): reduced the extent of this temporal delay

Reference: paper PMC7247319, “The mitochondria-targeted peptide SS-31 binds lipid bilayers and modulates surface electrostatics as a key component of its mechanism of action” (The Journal of Biological Chemistry, 2020)
